# In US20080267932A1, “Lactobacillus Rhamnosus with Body-Fat Reducing Activity and the Foods Containing Them” (priority 2004, published 2008):
# Tested on: CLA production from LA
# Assay: not given
# Conditions: reported strains, for comparison; cited from earlier work
row,Compound,yield of t10c12 CLA [ppm]
1,Lactobacillus reuteri,30

# Tested on: Lactobacillus rhamnosus Strain PL60
# Assay: Antibiotic resistance (diameter of growth inhibition)
# Format: cell-based
# Conditions: antibiotic against Lactobacillus rhamnosus Strain PL60
row,Compound,Diameter(mm) of growth inhibition [mm]
1,CC1(C)S[C@@H]2[C@H](NC(=O)[C@H](N)c3ccccc3)C(=O)N2[C@H]1C(=O)O [Ampicillin],21
2,CC1(C)S[C@@H]2[C@H](NC(=O)C(C(=O)O)c3ccccc3)C(=O)N2[C@H]1C(=O)O (stereo partly shown) [Carbenicillin],25
3,CCN1CCN(C(=O)N[C@@H](C(=O)N[C@@H]2C(=O)N3C(C(=O)O)=C(CSc4nnnn4C)CS[C@H]23)c2ccc(O)cc2)C(=O)C1=O [Cefoperazone],22
4,CC(=O)OCC1=C(C(=O)O)N2C(=O)[C@@H](NC(=O)Cc3cccs3)[C@H]2SC1 [Cephalothin],20
5,O=C(N[C@H](CO)[C@H](O)c1ccc([N+](=O)[O-])cc1)C(Cl)Cl [Chloramphenicol],24
6,CCC[C@@H]1C[C@@H](C(=O)N[C@@H]([C@H]2O[C@H](SC)[C@H](O)[C@@H](O)[C@H]2O)[C@H](C)Cl)N(C)C1 [Clindamycin],26
7,CC[C@H]1OC(=O)[C@H](C)[C@@H](O[C@H]2C[C@@](C)(OC)[C@@H](O)[C@H](C)O2)[C@H](C)[C@@H](O[C@@H]2O[C@H](C)C[C@H](N(C)C)[C@H]2O)[C@](C)(O)C[C@@H](C)C(=O)[C@H](C)[C@@H](O)[C@]1(C)O [Erythromycin],28
8,Cc1onc(-c2ccccc2)c1C(=O)N[C@@H]1C(=O)N2[C@@H]1SC(C)(C)[C@@H]2C(=O)O [Oxacillin],8
9,CCN1CCN(C(=O)N[C@@H](C(=O)N[C@@H]2C(=O)N3[C@@H]2SC(C)(C)[C@@H]3C(=O)O)c2ccccc2)C(=O)C1=O [Piperacilin],30
10,CO[C@H]1/C=C/O[C@@]2(C)Oc3c(C)c(O)c4c(O)c(c(/C=N/N5CCN(C)CC5)c(O)c4c3C2=O)NC(=O)/C(C)=C\C=C\[C@H](C)[C@H](O)[C@@H](C)[C@@H](O)[C@@H](C)[C@H](OC(C)=O)[C@@H]1C [Rifampin],24
11,[H]/N=C(/N)N[C@H]1[C@H](O)[C@@H](O)[C@H](O[C@@H]2O[C@@H](C)[C@](O)(C=O)[C@H]2O[C@@H]2O[C@@H](CO)[C@H](O)[C@@H](O)[C@@H]2NC)[C@@H](N/C(N)=N\[H])[C@@H]1O [Streptomycin],11
12,CN(C)[C@@H]1C(O)=C(C(N)=O)C(=O)[C@@]2(O)C(O)=C3C(=O)c4c(O)cccc4[C@@](C)(O)[C@H]3C[C@@H]12 [Tetracycline],29
13,CN[C@H](CC(C)C)C(=O)N[C@H]1C(=O)N[C@@H](CC(N)=O)C(=O)N[C@H]2C(=O)N[C@H]3C(=O)N[C@H](C(=O)N[C@H](C(=O)O)c4cc(O)cc(O)c4-c4cc3ccc4O)[C@H](O)c3ccc(c(Cl)c3)Oc3cc2cc(c3O[C@@H]2O[C@H](CO)[C@@H](O)[C@H](O)[C@H]2O[C@H]2C[C@](C)(N)[C@H](O)[C@H](C)O2)Oc2ccc(cc2Cl)[C@H]1O [Vancomycin],6
14,Gentamicin,10
15,Penicillin,25
16,Trimethpprime/sulfamethoxasole,6

# Tested on: overweight people
# Assay: not given
# Conditions: 180 overweight people, administered for one year; cited from earlier work
row,Compound,weight loss
1,conjugated linoleic acid [CLA],4-10%

# Same assay, conditions: in vivo; cited from earlier work
row,Compound,side effects
1,conjugated linoleic acid [CLA],without side effects
